Tests used:
Pyrenophora teres = Pyrenophora teres test (barley)/protective; settings: protective spray on barley, evaluation 10 days after inoculation
Gibberella zeae = test: microbe, parasite or virus in culture; type: cell-based; settings: Fusarium graminearum, 120 h, read-out: % efficacy

Row | SMILES | Efficacy in % found (Pyrenophora teres; 62.5 g/ha) | Efficacy in % found (Pyrenophora teres; 125 g/ha) | Efficacy at 0.3 ppm (Gibberella zeae)
1 | Cc1nn(C)c(F)c1C(=O)Nc1ccccc1C(C)CC(C)C (stereo not shown) [(I), N-[2-(1,3-Dimethylbutyl)phenyl]-5-fluoro-1,3-dimethyl-1H-pyrazole-4-carboxamide] | 67% |  | 
2 | COCC(=O)N(c1c(C)cccc1C)C(C)C(=O)OC (stereo not shown) [(III), Metalaxyl] |  | 22% | 
3 | CO/N=C(/C(=O)OC)c1ccccc1CO/N=C(\C)c1cccc(C(F)(F)F)c1 [Trifloxystrobin, trifloxystrobin] | 78% |  | 40%

From patent publication US8541342B2, “Fungicidal substance combinations” (Bayer Cropsciene AG, priority 2007, dated 2013)
